Test system: monocistronic NK5.1 HCV replicon in Huh7 cells
Assay: HCV replicon assay, monocistronic replicon cell line
Type: cell-based, hepatitis C virus
Details: Hepatitis C virus, Huh-7, 72 h; table T3 (compounds 471-640); monocistronic replicon in Huh7 cells, 3 days incubation, HCV RNA/GAPDH RNA by TaqMan RT-PCR; read-out: Mono EC50 Median
How it was run: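 EC50 derives from the HCV RNA/GAPDH RNA ratio by one-step TaqMan RT-PCR, relative to DMSO-only wells. Compounds (six half-log concentrations, 0.6% DMSO) were incubated 3 days at 37 °C with NK5.1 monocistronic replicon Huh7 cells plated a day earlier.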

SMILES	EC50
Oc1ccc(F)cc1-c1nc(-c2ncccn2)n[nH]1 [Compound 561, 4-Fluoro-2-(5-pyrimidin-2-yl-2H-[1,2,4]triazol-3-yl)-phenol]	> 32 µM
COc1ccc(O)c(-c2nc(-c3ncccn3)n[nH]2)c1 [Compound 562, 4-Methoxy-2-(5-pyrimidin-2-yl-2H-[1,2,4]triazol-3-yl)-phenol]	> 32 µM
Oc1ccc(Cl)cc1-c1nc(-c2ncccn2)n[nH]1 [Compound 563, 4-Chloro-2-(5-pyrimidin-2-yl-2H-[1,2,4]triazol-3-yl)-phenol]	6.4 µM
CCOc1cccc(-c2nc(-c3ncccn3)n[nH]2)c1O [Compound 564, 6-Ethoxy-2-(5-pyrimidin-2-yl-2H-[1,2,4]triazol-3-yl)-phenol]	> 32 µM
Oc1cc(OCc2ccccc2)ccc1-c1nc(-c2ncccn2)n[nH]1 [Compound 565, 5-Benzyloxy-2-(5-pyrimidin-2-yl-2H-[1,2,4]triazol-3-yl)-phenol]	26 µM
Oc1ccc(Br)cc1-c1nc(-c2ncccn2)n[nH]1 [Compound 566, 4-Bromo-2-(5-pyrimidin-2-yl-2H-[1,2,4]triazol-3-yl)-phenol]	5.9 µM
Cc1ccc(O)c(-c2nc(-c3ncccn3)n[nH]2)c1 [Compound 567, 4-Methyl-2-(5-pyrimidin-2-yl-2H-[1,2,4]triazol-3-yl)-phenol]	> 32 µM
COc1ccc(-c2nc(-c3ncccn3)n[nH]2)c(O)c1 [Compound 568, 5-Methoxy-2-(5-pyrimidin-2-yl-2H-[1,2,4]triazol-3-yl)-phenol]	> 32 µM
Oc1ccccc1-c1nc(-c2ncccn2)n[nH]1 [Compound 569, 2-(5-pyrimidin-2-yl-2H-[1,2,4]triazol-3-yl)-phenol]	> 32 µM
COc1cccc(-c2nc(-c3ncccn3)n[nH]2)c1O [Compound 570, 6-Methoxy-2-(5-pyrimidin-2-yl-2H-[1,2,4]triazol-3-yl)-phenol]	> 32 µM
CCN(CC)c1ccc(-c2nc(-c3ncccn3)n[nH]2)c(O)c1 [Compound 571, 5-Diethylamino-2-(5-pyrimidin-2-yl-2H-[1,2,4]triazol-3-yl)-phenol]	18 µM
Oc1ccc(O)c(-c2nc(-c3ncccn3)n[nH]2)c1 [Compound 572, 4-Hydroxy-2-(5-pyrimidin-2-yl-2H-[1,2,4]triazol-3-yl)-phenol]	> 32 µM
Oc1ccc2ccccc2c1-c1nc(-c2ncccn2)n[nH]1 [Compound 573, 1-(5-pyrimidin-2-yl-2H-[1,2,4]triazol-3-yl)-naphthalen-2-ol]	3.5 µM
Oc1c(-c2nc(-c3ncccn3)n[nH]2)ccc2ccccc12 [Compound 574, 2-(5-Pyrimidin-2-yl-2H-[1,2,4]triazol-3-yl)-naphthalen-1-ol]	> 32 µM
CC(C)(C)c1ccc(O)c(-c2nc(-c3cnccn3)n[nH]2)c1 [Compound 575, 4-tert-Butyl-2-(5-pyrazin-2-yl-2H-[1,2,4]triazol-3-yl)-phenol]	9 µM
O=[N+]([O-])c1ccc(O)c(-c2nc(-c3cnccn3)n[nH]2)c1 [Compound 576, 4-Nitro-2-(5-pyrazin-2-yl-2H-[1,2,4]triazol-3-yl)-phenol]	16 µM
Oc1ccc(F)cc1-c1nc(-c2cnccn2)n[nH]1 [Compound 577, 4-Fluoro-2-(5-pyrazin-2-yl-2H-[1,2,4]triazol-3-yl)-phenol]	18 µM
COc1ccc(O)c(-c2nc(-c3cnccn3)n[nH]2)c1 [Compound 578, 4-Methoxy-2-(5-pyrazin-2-yl-2H-[1,2,4]triazol-3-yl)-phenol]	> 32 µM
Oc1ccc(Cl)cc1-c1nc(-c2cnccn2)n[nH]1 [Compound 579, 4-Chloro-2-(5-pyrazin-2-yl-2H-[1,2,4]triazol-3-yl)-phenol]	5.8 µM

SMILES	EC50
CCOc1cccc(-c2nc(-c3cnccn3)n[nH]2)c1O [Compound 580, 6-Ethoxy-2-(5-pyrazin-2-yl-2H-[1,2,4]triazol-3-yl)-phenol]	> 32 µM
Oc1cc(OCc2ccccc2)ccc1-c1nc(-c2cnccn2)n[nH]1 [Compound 581, 5-Benzyloxy-2-(5-pyrazin-2-yl-2H-[1,2,4]triazol-3-yl)-phenol]	> 32 µM
Oc1ccc(Br)cc1-c1nc(-c2cnccn2)n[nH]1 [Compound 582, 4-Bromo-2-(5-pyrazin-2-yl-2H-[1,2,4]triazol-3-yl)-phenol]	18 µM
Cc1ccc(O)c(-c2nc(-c3cnccn3)n[nH]2)c1 [Compound 583, 4-Methyl-2-(5-pyrazin-2-yl-2H-[1,2,4]triazol-3-yl)-phenol]	> 32 µM
COc1ccc(-c2nc(-c3cnccn3)n[nH]2)c(O)c1 [Compound 584, 5-Methoxy-2-(5-pyrazin-2-yl-2H-[1,2,4]triazol-3-yl)-phenol]	> 32 µM
Oc1ccccc1-c1nc(-c2cnccn2)n[nH]1 [Compound 585, 2-(5-pyrazin-2-yl-2H-[1,2,4]triazol-3-yl)-phenol]	> 32 µM
COc1cccc(-c2nc(-c3cnccn3)n[nH]2)c1O [Compound 586, 6-Methoxy-2-(5-pyrazin-2-yl-2H-[1,2,4]triazol-3-yl)-phenol]	> 32 µM
CCN(CC)c1ccc(-c2nc(-c3cnccn3)n[nH]2)c(O)c1 [Compound 587, 5-Diethylamino-2-(5-pyrazin-2-yl-2H-[1,2,4]triazol-3-yl)-phenol]	23 µM
Oc1ccc(O)c(-c2nc(-c3cnccn3)n[nH]2)c1 [Compound 588, 4-Hydroxy-2-(5-pyrazin-2-yl-2H-[1,2,4]triazol-3-yl)-phenol]	> 32 µM
Oc1ccc2ccccc2c1-c1nc(-c2cnccn2)n[nH]1 [Compound 589, 1-(5-pyrazin-2-yl-2H-[1,2,4]triazol-3-yl)-naphthalen-2-ol]	7 µM
Oc1c(Br)cc(Br)cc1-c1nc(-c2cnccn2)n[nH]1 [Compound 590, 2,4-Dibromo-6-(5-pyrazin-2-yl-2H-[1,2,4]triazol-3-yl)-phenol]	14 µM
Oc1c(-c2nc(-c3cnccn3)n[nH]2)ccc2ccccc12 [Compound 591, 2-(5-pyrazin-2-yl-2H-[1,2,4]triazol-3-yl)-naphthalen-1-ol]	16 µM
Nc1ccc(-c2n[nH]c(-c3cc(Br)ccc3O)n2)nc1 [Compound 592, 2-[5-(5-Amino-pyridin-2-yl)-2H-[1,2,4]triazol-3-yl]-4-bromo-phenol]	> 32 µM
CC(=O)Nc1ccc(-c2n[nH]c(-c3cc(Br)ccc3O)n2)nc1 [Compound 593, N-{6-[5-(5-Bromo-2-hydroxy-phenyl)-1H-[1,2,4]triazol-3-yl]-pyridin-3-yl}-acetamide]	48.7 µM
COc1ccc(O)c(-c2nc(-c3ccc(N)cn3)n[nH]2)c1 [Compound 594, 2-[5-(5-Amino-pyridin-2-yl)-2H-[1,2,4]triazol-3-yl]-4-methoxy-phenol]	> 19 µM
COc1ccc(O)c(-c2nc(-c3ccc(NC(C)=O)cn3)n[nH]2)c1 [Compound 595, N-{6-[5-(5-methoxy-2-hydroxy-phenyl)-1H-[1,2,4]triazol-3-yl]-pyridin-3-yl}-acetamide]	41.8 µM
Cn1nc(-c2ccccn2)nc1-c1cc(Br)ccc1O [Compound 596, 4-Bromo-2-(2-methyl-5-pyridin-2-yl-2H-[1,2,4]triazol-3-yl)-phenol]	15 µM
Cn1nc(-c2ccccn2)nc1-c1cc([N+](=O)[O-])ccc1O [Compound 597, 4-Nitro-2-(2-methyl-5-pyridin-2-yl-2H-[1,2,4]triazol-3-yl)-phenol]	11 µM

Source: patent US20050075375A1 (priority 2003, published 2005)
